Results from US11371099B2, “HEATR1 as a marker for chemoresistance” (MAYO FOUNDATION FOR MEDICAL EDUCATION AND RESEARCH, priority 2015, dated 2022).

What was measured:
[1] = system: Akt; details: cited from earlier work
[2] = system: SU86.86, ASPC-1, and PANC-1 cells; assay: MTS cell survival assay in pancreatic cancer cells transfected with control or HEATR1 siRNA/shRNA; type: cell-based, human; details: HEATR1 siRNA or shRNA vs control
Method: FIG. 1. […] (A) Cells were transfected with indicated siRNA and treated with Gemcitabine. Cell survival was determined. […] (C) SU86.86 cells were transfected with indicated siRNA and treated. Cell survival was determined.
(A) PANC-1 and ASPC-1 cells stably expressing control or HEATR1 shRNA treated with gemcitabine. Cell survival was determined as described in FIG. 1A. The data presented are mean±SD for six independent experiments. […] (B) PANC-1 and ASPC-1 cells were transfected with control or HEATR1 siRNA and then treated with the indicated drugs. Cell survival was determined as described in A. The data presented are mean±SD for six independent experiments.
Human pancreatic cancer cell lines SU86.86, ASPC-1, and PANC-1 were purchased from ATCC in 2014. The identities of these cell lines were confirmed by the medical genome facility at Mayo Clinic Center using short tandem repeat profiling upon receipt. The cell lines were maintained in RPMI 1640 with 10% FBS. HEATR1 cDNA was purchased from Thermo Scientific and full length and mutants were subcloned into pIRES-EGFP. PP2A-Aα, B55α, B56β, Cα were purchased from addgene and subcloned into HA-pcmv and pGex4T-1. HEATR1 siRNA and shRNA were from Dharmacon and Sigma, respectively.
Gemcitabine was from Eli Lilly (Indianapolis, Ind.). Paclitaxel, SN-38, mitomycin c, oxaliplatin and etopside were from Sigma-Aldrich (St. Louis, Mo.). […] Ctrl (Control) or HEATR1 siRNA or shRNA were transfected, and the growth-inhibitory effect was performed as described previously (21). In one embodiment, a MTS assay may be performed by a MTS Cell Proliferation Assay Kit (Colorimetric) (197010); a colorimetric sensitive quantification of viable cells in proliferation and cytotoxicity assays. The assay is based on the reduction of MTS tetrazolium compound by viable cells to generate a colored formazan product that is soluble in cell culture media.

[3] = system: PANC-1 xenograft tumors; assay: Tumor xenograft study, PANC-1 cells stably expressing Ctrl or HEATR1 shRNA; type: in vivo, mouse; details: Gemcitabine 50 mg/kg i.p. every 3 days; HEATR1 shRNA vs Ctrl
Method: Xenograft tumors were dissected and tumor weights were measured after mice were sacrificed (C). ANOVA analysis was performed (Mann-Whitney test) +P<0.05, ++P<0.01 (Ctrl vs KD). […] Representative photographs of indicated xenograft tumors were shown in (E). Female athymic nu/nu mice were obtained from the National Cancer Institute. Experiments were performed under the approval of the Institutional Animal Care and Use Committee at Mayo Clinic. PANC-1 cells stably expressing Ctrl and HEATR1 shRNA were injected subcutaneously in mouse flanks (10^6 cells/mouse flank). Tumor volumes were measured every three days. […] After sacrificing the mice, tumors were surgically removed and weighted.

[4] = system: SU86.86 cells; assay: Apoptosis (cleaved PARP1 western blot) in cells expressing control or HEATR1 shRNA; type: cell-based, human; details: control cells vs HEATR1 shRNA cells; 10 μM, 48 hours
Method: (A) SU86.86 cells stably expressing control or HEATR1 shRNA treated with gemcitabine (10 μM). Cell lysate were collect at 48 hours and western blotting was performed with indicated antibodies. (B) Cells stably expressing control or HEATR1 shRNA were seeded in each well (5×10^4/well) and cell numbers were counted every 24 hour. Data are represented as the mean±SD of four independent experiments. We prepared cell lysates, performed immunoprecipitation, and immunoblotting as previously described. In brief, cells were lysed with NETN buffer (20 mM Tris-HCl, pH 8.0, 100 mM NaCl, 1 mM EDTA, 0.5% Nonidet P-40) containing 50 mM b-glycerophosphate, 10 mM NaF, and […] each of pepstatin A and aprotinin. Whole cell lysates were pulse-sonicated and obtained by centrifugation. Whole cell lysates were incubated with 2 μg of antibody and protein A or protein G Sepharose beads (Amersham Biosciences) for 2 hr or overnight at 4° C. The immunocomplexes were then washed with NETN buffer for three times and separated by SDS-PAGE. Immunoblotting was performed following standard procedures. GST fusion proteins were bound to glutathione-Sepharose overnight at 4° C. The beads were washed with PBS four times and incubated with cell lysates for 1 h at 4° C. After washing with NETN for three times, the bound proteins were separated by SDS-PAGE and immunoblotted with indicated antibodies.

[5] = system: pancreatic tumor; details: dinaciclib combined with MK-2206; cited from earlier work
[6] = patients with advanced solid tumors; cited from earlier work
[7] = system: Akt; details: cited from earlier work; remark: listed apart in the source
[8] = system: Akt phospho-Thr308 and phospho-Ser473; details: in vivo, both sensitive and resistant tumors; cited from earlier work
[9] = system: Akt phosphorylation at Thr308; assay: Western blot of Akt phosphorylation after serum starvation and serum addition; type: cell-based, human; details: SU86.86 cells, pretreated 5 nM
Method: (A) Intracellular co-localization of HEATR1 and AKT were observed by using confocal microscopy in Su86.86, PANC-1 and ASPC-1 cells. (B) Cell lysates were subjected to immunoprecipitation with control IgG or anti-HEATR1 antibodies. The immunoprecipitates were then blotted with indicated antibodies. (C) Cells were transfected with control or HEATR1 siRNA, and the interaction between Akt and PDK1 was examined. (D) SU86.86 Cells transfected with control or HEATR1 siRNA were serum starved for 16 hours (0.1% serum), pretreated with DMSO or okadaic acid (5 nM) and then serum was added. Whole-cell lysates were harvested at indicated time and western blotting was performed with indicated antibodies.
We prepared cell lysates, performed immunoprecipitation, and immunoblotting as previously described. In brief, cells were lysed with NETN buffer (20 mM Tris-HCl, pH 8.0, 100 mM NaCl, 1 mM EDTA, 0.5% Nonidet P-40) containing 50 mM b-glycerophosphate, 10 mM NaF, and […] each of pepstatin A and aprotinin. Whole cell lysates were pulse-sonicated and obtained by centrifugation. Whole cell lysates were incubated with 2 μg of antibody and protein A or protein G Sepharose beads (Amersham Biosciences) for 2 hr or overnight at 4° C. The immunocomplexes were then washed with NETN buffer for three times and separated by SDS-PAGE. Immunoblotting was performed following standard procedures. […]

S=C=NCc1ccccc1 [BITC, Benzyl isothiocyanate]
Phosphorylation of Akt at both Ser-473 and Ser-308 [1]: suppresses

CC[C@@]1(O)C(=O)OCc2c1cc1n(c2=O)Cc2cc3ccccc3nc2-1 [Camptothecin]
Cell survival / resistance to drug in cells with HEATR1 knockdown versus control [2]: significantly resistant

Nc1ccn([C@@H]2O[C@H](CO)[C@@H](O)C2(F)F)c(=O)n1 [Gemcitabine]
Tumor response to drug in xenografts with HEATR1 downregulation [3]: resistance to Gemcitabine
Cell survival / resistance to drug in cells with HEATR1 knockdown versus control [2]: increased resistance
Apoptosis activity induced by drug [4]: stronger apoptosis activity in control cells

NC1(c2ccc(-c3nc4ccn5c(=O)[nH]nc5c4cc3-c3ccccc3)cc2)CCC1 [MK-2206]
Pancreatic tumor growth and metastases [5]: dramatically block
Tolerability [6]: well tolerated

CCCCCCCCCCCCc1ccc(S(=O)(=O)Nc2nncs2)cc1 [PHT-427]
Akt activity in resistant cancer cells [7]: increase in Akt activity
Akt phospho-Thr308 and phospho-Ser473 in tumors [8]: decreased

CCc1c2c(nc3ccc(O)cc13)-c1cc3c(c(=O)n1C2)COC(=O)[C@]3(O)CC [SN-38]
Cell survival / resistance to drug in cells with HEATR1 knockdown versus control [2]: significantly resistant

COc1cc([C@@H]2c3cc4c(cc3[C@@H](O[C@@H]3O[C@@H]5CO[C@@H](C)O[C@H]5[C@H](O)[C@H]3O)[C@H]3COC(=O)[C@H]23)OCO4)cc(OC)c1O [etopside]
Cell survival / resistance to drug in cells with HEATR1 knockdown versus control [2]: significantly resistant

CO[C@@]12[C@H](COC(N)=O)C3=C(C(=O)C(C)=C(N)C3=O)N1C[C@@H]1N[C@@H]12 [mitomycin c]
Cell survival / resistance to drug in cells with HEATR1 knockdown versus control [2]: significantly resistant

C=C1[C@@H](O)[C@@H]2O[C@]3(CC[C@H](/C=C/[C@@H](C)[C@@H]4CC(C)=C[C@@]5(O[C@H](C[C@@](C)(O)C(=O)O)CC[C@H]5O)O4)O3)CC[C@H]2O[C@@H]1[C@@H](O)C[C@H](C)[C@H]1O[C@@]2(CCCCO2)CC[C@H]1C [okadaic acid]
Akt phosphorylation at Thr308 [9]: significantly increased

O=C1[O][Pt]2([NH][C@@H]3CCCC[C@H]3[NH]2)[O]C1=O [oxaliplatin]
Cell survival / resistance to drug in cells with HEATR1 knockdown versus control [2]: significantly resistant

CC(=O)O[C@H]1C(=O)[C@@]2(C)[C@H]([C@H](OC(=O)c3ccccc3)[C@]3(O)C[C@H](OC(=O)[C@H](O)[C@@H](NC(=O)c4ccccc4)c4ccccc4)C(C)=C1C3(C)C)[C@]1(OC(C)=O)CO[C@@H]1C[C@@H]2O [paclitaxel]
Cell survival / resistance to drug in cells with HEATR1 knockdown versus control [2]: significantly resistant
